Test system: hyperuricemia model mice
Assay: Uric acid lowering ability in hyperuricemia model mice (xanthine + oteracil potassium)
Type: in vivo
Conditions: positive group 50 mg/kg by gavage, seven days, mouse serum
Protocol: Sixty male mice are randomly divided into six groups after one week's feeding, with 10 mice in each group, including a blank group, a model group, a high P1 dose group (400 mg/kg), a middle P1 dose group (200 mg/kg), a low P1 dose group (100 mg/kg) and a positive drug (50 mg/kg) control group. Every morning, the model group, the positive control group and the high, middle and low P1 dose groups are administered with 600 mg/kg of xanthine (ig) by gavage+100 mg/kg of oteracil potassium (ip) by intraperitoneal injection, fasting but water available for one hour before the model is made, and the blank group is administered with the same dose of normal saline. In the afternoon, the high, middle and low P1 dose groups are administered with the polysaccharide suspension by gavage; the positive control group is administered with 50 mg/kg of allopurinol suspension by gavage; the model group and the blank group are administered with the same volume of normal saline by gavage for seven consecutive days.
On the seventh day, 1 hour after administration in the afternoon, the mice are weighed and decapitated for blood collection. The blood is centrifuged at 3000 r/min for 10 min after being placed at room temperature for 40 min, and the upper layer of the serum is pipetted. Serum uric acid (UA), serum creatinine (CREA) and serum urea nitrogen (BUN) values are measured by kits to investigate the effects of the polysaccharide P1 on UA, CREA and BUN, as well as renal functions in the hyperuricemia model mice.

Question: With `Oc1ncnc2[nH]ncc12` [Positive, allopurinol] as the molecule, how does the “BUN (serum urea nitrogen)” value read?
Answer: 6.99 ± 1.10 mmol/L

Question: And the “CREA (serum creatinine)” value?
Answer: 71.69 ± 8.43 µmol/L

Question: And the “UA (serum uric acid)” value?
Answer: 108.83 ± 6.53 µmol/L
